Experimental data as given in patent US7507803B2, “Optimized multi-epitope constructs and uses thereof” (priority 2002, dated 2009).
pIC50: −log10 of the molar value. Like-named read-outs stand apart in the source and are kept apart here. Ends that are not written are not given here.

Tests used:
[1] = tested on: HLA supertype alleles; assay type: binding, human
[2] = tested on: H2^bxd mice; assay: CTL response after peptide/IFA immunization, in situ ELISA; assay type: in vivo, mouse; settings: peptide/IFA immunization of H2^bxd mice
[3] = molecular target: HLA-A*2402 (Homo sapiens, UniProt P04439, D101N/D140Y/D185E/E176V/E190D/F33S/G103R/G107R/I119L/I121M/I306V/K335N/L105A/L180Q/L300P/N151K/N90K/Q86E/Q94H/R106L/R138H/R89G/T104I/T345S/V100E/W191G/Y123F); assay: HLA class I peptide binding assay (purified HLA, IC50)
[4] = tested on: HLA-A*0201/K^b transgenic mice; assay: CTL response after DNA immunization, 51Cr release assay (lytic units); assay type: in vivo, mouse
Description: However, the magnitude and the frequency of the responses varied greatly between epitopes.
This assay to measure CTL activity is well known in the art. […] The LU calculation allows quantifying responses and thus readily comparing different experimental values.

[5] = A1 or A24 supertype, three related alleles
[6] = A2, A3 or B7 supertype, five most common members

CC(C)C[C@H](NC(=O)[C@H](C)NC(=O)[C@H](CO)NC(=O)[C@H](C)NC(=O)[C@@H](NC(=O)[C@H](CC(=O)O)NC(=O)[C@H](CC(C)C)NC(=O)[C@H](CC(C)C)NC(=O)[C@@H](N)CC(=O)O)[C@@H](C)O)C(=O)N[C@@H](Cc1ccc(O)cc1)C(=O)O [core 419]
XRN (number of supertype alleles bound ≦500 nM) [1, 5]: 3

CC[C@H](C)[C@H](NC(=O)[C@@H](NC(=O)[C@H](Cc1ccccc1)NC(=O)[C@H](CCCNC(=N)N)NC(=O)[C@H](CCCNC(=N)N)NC(=O)[C@H](CC(C)C)NC(=O)[C@H](CS)NC(=O)[C@H](CCSC)NC(=O)[C@H](Cc1c[nH]c2ccccc12)NC(=O)[C@@H](N)CCCNC(=N)N)[C@@H](C)CC)C(=O)O [env 236]
Murine Immunogenicity (SU) [2]: 339.6 SU | XRN (number of supertype alleles bound ≦500 nM) [1, 5]: 3

CSCC[C@H](NC(=O)[C@H](CCSC)NC(=O)[C@@H](N)Cc1c[nH]c2ccccc12)C(=O)N[C@@H](Cc1c[nH]c2ccccc12)C(=O)N[C@@H](Cc1ccc(O)cc1)C(=O)N[C@@H](Cc1c[nH]c2ccccc12)C(=O)NCC(=O)N1CCC[C@H]1C(=O)N[C@@H](CO)C(=O)N[C@@H](CC(C)C)C(=O)N[C@@H](Cc1ccc(O)cc1)C(=O)O [env 359]
XRN (number of supertype alleles bound ≦500 nM) [1, 5]: 3

CC[C@H](C)[C@H](NC(=O)[C@@H]1CCCN1C(=O)[C@H](CC(C)C)NC(=O)[C@@H](N)CC(C)C)C(=O)N[C@@H](Cc1ccccc1)C(=O)N[C@@H](Cc1ccccc1)C(=O)N[C@@H](CS)C(=O)N[C@@H](CC(C)C)C(=O)N[C@@H](Cc1c[nH]c2ccccc12)C(=O)N[C@H](C(=O)O)C(C)C [env 378]
XRN (number of supertype alleles bound ≦500 nM) [1, 6]: 1

C[C@H](N)C(=O)N[C@@H](CO)C(=O)N[C@@H](Cc1ccccc1)C(=O)N[C@@H](CS)C(=O)NCC(=O)N[C@@H](CO)C(=O)N1CCC[C@H]1C(=O)N[C@@H](Cc1ccc(O)cc1)C(=O)O [pol 166]
XRN (number of supertype alleles bound ≦500 nM) [1, 5]: 3

N[C@@H](CO)C(=O)N[C@@H](Cc1ccccc1)C(=O)N[C@@H](CS)C(=O)NCC(=O)N[C@@H](CO)C(=O)N1CCC[C@H]1C(=O)N[C@@H](Cc1ccc(O)cc1)C(=O)N[C@@H](CO)C(=O)N[C@@H](Cc1c[nH]c2ccccc12)C(=O)O [pol 167]
pIC50 [3]: 6.84 | XRN (number of supertype alleles bound ≦500 nM) [1, 5]: 3

CC(C)[C@H](NC(=O)CNC(=O)CNC(=O)[C@@H](NC(=O)[C@@H](NC(=O)[C@H](CCCNC(=N)N)NC(=O)[C@H](C)NC(=O)[C@@H]1CCCN1C(=O)[C@@H](N)[C@@H](C)O)C(C)C)[C@@H](C)O)C(=O)N[C@@H](Cc1ccccc1)C(=O)O [pol 354]
XRN (number of supertype alleles bound ≦500 nM) [1, 6]: 2

CC(C)C[C@H](NC(=O)[C@H](CC(N)=O)NC(=O)[C@@H]1CCCN1C(=O)[C@@H](NC(=O)[C@H](C)NC(=O)[C@H](Cc1ccccc1)NC(=O)[C@H](CCCCN)NC(=O)[C@@H]1CCCN1C(=O)[C@H](Cc1c[nH]c2ccccc12)NC(=O)[C@@H](N)CO)C(C)C)C(=O)O [pol 392]
Murine Immunogenicity (SU) [2]: 261.0 SU | XRN (number of supertype alleles bound ≦500 nM) [1, 5]: 2

CC(C)C[C@H](NC(=O)[C@H](CO)NC(=O)[C@@H](N)CC(C)C)C(=O)N[C@@H](CC(=O)O)C(=O)N[C@H](C(=O)N[C@@H](CO)C(=O)N[C@@H](C)C(=O)N[C@@H](C)C(=O)N[C@@H](Cc1ccccc1)C(=O)N[C@@H](Cc1ccc(O)cc1)C(=O)O)C(C)C [pol 415]
XRN (number of supertype alleles bound ≦500 nM) [1, 5]: 3

CC(C)C[C@H](NC(=O)[C@H](CCCNC(=N)N)NC(=O)[C@H](C)NC(=O)[C@@H](NC(=O)[C@H](Cc1ccc(O)cc1)NC(=O)[C@H](CCCNC(=N)N)NC(=O)[C@H](CO)NC(=O)[C@H](CC(C)C)NC(=O)CN)C(C)C)C(=O)O [pol 455]
XRN (number of supertype alleles bound ≦500 nM) [1, 6]: 3

CC(C)C[C@H](NC(=O)[C@H](CS)NC(=O)[C@H](Cc1c[nH]cn1)NC(=O)[C@@H]1CCCN1C(=O)[C@H](Cc1ccccc1)NC(=O)[C@H](C)N)C(=O)N[C@@H](C)C(=O)N[C@@H](Cc1ccccc1)C(=O)O [pol 529]
XRN (number of supertype alleles bound ≦500 nM) [1, 5]: 3

CC[C@H](C)[C@H](NC(=O)CNC(=O)[C@H](CC(C)C)NC(=O)[C@H](CO)NC(=O)[C@H](CC(C)C)NC(=O)[C@H](CC(C)C)NC(=O)[C@@H](N)Cc1ccccc1)C(=O)N[C@@H](Cc1c[nH]cn1)C(=O)N[C@@H](CC(C)C)C(=O)O [pol 562]
XRN (number of supertype alleles bound ≦500 nM) [1, 6]: 3

CSCC[C@H](NC(=O)[C@H](CC(C)C)NC(=O)[C@H](C)NC(=O)[C@@H]1CCCN1C(=O)[C@H](Cc1ccc(O)cc1)NC(=O)CN)C(=O)N1CCC[C@H]1C(=O)N[C@@H](CC(C)C)C(=O)N[C@@H](Cc1ccc(O)cc1)C(=O)O [pol 639]
pIC50 [3]: 6.55 | XRN (number of supertype alleles bound ≦500 nM) [1, 5]: 2

CC[C@H](C)[C@H](NC(=O)[C@H](CS)NC(=O)[C@H](C)NC(=O)[C@H](Cc1ccc(O)cc1)NC(=O)[C@H](CC(C)C)NC(=O)[C@@H]1CCCN1C(=O)[C@H](CCSC)NC(=O)[C@H](CC(C)C)NC(=O)[C@H](C)N)C(=O)O [pol 642]
XRN (number of supertype alleles bound ≦500 nM) [1]: 4

CC(C)C[C@H](NC(=O)[C@H](C)NC(=O)[C@H](CO)NC(=O)[C@@H]1CCCN1C(=O)[C@@H](NC(=O)[C@H](Cc1ccc(O)cc1)NC(=O)[C@@H](NC(=O)[C@H](Cc1ccccc1)NC(=O)[C@H](CO)NC(=O)[C@@H](NC(=O)CN)[C@@H](C)O)C(C)C)C(C)C)C(=O)N[C@@H](CC(N)=O)C(=O)N1CCC[C@H]1C(=O)N[C@@H](C)C(=O)N[C@@H](CC(=O)O)C(=O)O [pol 774]
HIV-FT Immunogenicity magnitude ([4]; 100 μg HIV-FT plasmid DNA i.m., CTL response to the epitope): 0 LU | Frequency (fraction of independent cultures yielding positive responses) ([4]; CTL response to the epitope after immunization with epigene construct HIV 1 (20 mer)): 0/8 | HIV-FT Immunogenicity frequency (number cultures >2LU/total tested) ([4]; HIV-FT DNA): 0/8 | HIV-FT Immunogenicity frequency of positive cultures ([4]; HIV-FT DNA, positive = >2LU): 0% | Frequency (fraction of independent cultures yielding positive responses) ([4]; epigene construct HIV 1.1 (10 mer)): 0/4

LWFHISCLTF [core 101]
pIC50 [3]: 8.17 | Murine Immunogenicity (SU) [2]: 0.0 SU | XRN (number of supertype alleles bound ≦500 nM) [1, 5]: 3

RFSWLSLLVPF [env 332]
pIC50 [3]: 7.92 | Murine Immunogenicity (SU) [2]: 0.0 SU | XRN (number of supertype alleles bound ≦500 nM) [1, 5]: 2
